“And” between values parts separate entries of the source, which are not always exact repeats. Identical values can stand only once. Like-named read-outs stand apart in the source and are kept apart here.
Experiments:
[1] = test system: tubulin (colchicine site); experiment: Inhibition of [3H]colchicine binding to tubulin; set-up: species or system bovine; conditions: tubulin 1 µM, [3H]colchicine 5 µM, compound 5 µM
Procedure: (§1) To evaluate the effect of the compounds on tubulin assembly in vitro[40], varying concentrations of compounds were preincubated with 10 μM bovine brain tubulin in 0.8M monosodium glutamate (pH adjusted to 6.6 with HCl in a 2.0M stock solution) at 30 °C and then cooled to 0 °C. After addition of 0.4 mM GTP, the mixtures were transferred to 0 °C cuvettes in a recording spectrophotometer and warmed to 30 °C. Tubulin assembly was followed turbidimetrically at 350 nm. […] The capacity of the test compounds to inhibit colchicine binding to tubulin was measured as described. The reaction mixtures contained 1 μM tubulin, 5 μM [^3H]colchicine and 5 μM test compound.

[2] = test system: human colon adenocarcinoma (HT29) cells; experiment: Antiproliferative assay, cell counting (Coulter Counter), HT29; format: cell-based
Procedure: (§2) Human cervix carcinoma (HeLa), human colon carcinoma (HT29), human breast carcinoma (MCF-7) and human lymphoma (HL-60) cells (3–5 × 10^4 cells) and a serial (five-fold) dilution of the test compounds were added to a 96-well microtiter plate. The cells were incubated for 72–96 h (depending on the tumor cell line) at 37 °C in a humidified 5% CO2 atmosphere. At the end of the incubation period, the cells were counted in a Coulter Counter (Coulter Electronics Ltd, Harpenden Herts, UK). […] The IC50 values represent the average (±standard deviation) of at least two to four independent experiments.

U-937/Bcl-2 cells = experiment: Cell cycle phase distribution and apoptosis, flow cytometry (propidium iodide) and fluorescence microscopy, U-937/Bcl-2; format: cell-based, human
Procedure: (§3) Fluorescent microscopy and flow cytometric analysis of propidium iodide-stained cells were performed as described. Briefly, cells were harvested and fixed in 3% paraformaldehyde and incubated at room temperature for 10 min. The fixative was removed, and the cells were washed with PBS, resuspended in 30–50 μL of PBS containing 20 μg/mL bis-benzimide trihydrochloride (Hoechst 33258) and incubated at room temperature for 15 min. Stained nuclei were visualized using a Zeiss fluorescence microscope.
(§4) Flow cytometric analysis was carried out using a BD FACSVerse™ cytometer (BD Biosciences, San Jose, CA, USA).

[3] = test system: U-937 cells overexpressing human Bcl-2 (U-937/Bcl-2); experiment: MTT cytotoxicity assay, U-937/Bcl-2; format: cell-based; conditions: U-937/Bcl-2, MTT, read-out: IC50, inhibition of cell growth
Procedure: (§5) U-937 (human myeloid leukaemia) cells from DSMZ (German Collection of Microorganisms and Cell Cultures, Braunschweig, Germany) and U-937 cells overexpressing human Bcl-2 protein (designated U-937/Bcl-2, donated by Dr Jacqueline Bréard, INSERM U749, Faculté de Pharmacie Paris-Sud., Châtenay-Malabry, France) were cultured in RPMI-1640 medium containing 10% (v/v) heat-inactivated foetal bovine serum, 100 μg/mL streptomycin and 100 U/mL penicillin, incubated at 37 °C in a humidified atmosphere containing 5% CO2 as described. The functioning of U-937/Bcl-2 cells was tested using the cytotoxic agent 1-β-D-arabino-furanosylcytosine as previously described. Human peripheral blood mononuclear cells (PBMC) were isolated from heparin-anticoagulated blood of healthy volunteers by centrifugation with Ficoll-Paque Plus (GE Healthcare Bio-Sciences AB, Uppsala, Sweden). PBMC were also stimulated with phytohemagglutinin (2 μg/mL) for 48 h before the experimental treatment. The trypan blue dye exclusion method was used for counting the living/dead cells by a hematocytometer with 95% viability in all experiments. The cytotoxicity of compounds was evaluated by the colorimetric 3-(4,5-dimethyl-2-thiazolyl-)-2,5-diphenyl-2H-tetrazolium bromide (MTT) assay as previously described. Briefly, 5 × 10^3 exponentially growing cells were seeded in 96-well microculture plates with increasing concentrations of compounds for 72 h. After the addition of MTT (0.5 mg/mL), cells were incubated at 37 °C for 4 h. Sodium dodecyl sulphate (10% w/v) in 0.05 M HCl was added to the wells and then incubated at room temperature overnight in the dark. Absorbance was measured at 570 nm. […] Values are mean ± SE from at least three independent experiments, each performed in triplicate. Compounds were dissolved in DMSO and kept in the dark at 25 °C.

[4] = test system: human myeloid leukaemia U-937 cells; experiment: MTT cytotoxicity assay, U-937; format: cell-based; conditions: U-937, MTT, 72 h, read-out: IC50, inhibition of cell growth
Procedure: as §5

[5] = test system: human promyelocytic leukemia (HL-60) cells; experiment: Antiproliferative assay, cell counting (Coulter Counter), HL-60; format: cell-based; conditions: Homo sapiens; HL-60, 72–96 h; read-out: IC50, inhibition of proliferation
Procedure: as §2

U-937 cells = experiment: Cell cycle phase distribution and apoptosis, flow cytometry (propidium iodide) and fluorescence microscopy, U-937; format: cell-based, human
Procedure: as §3, §4

bovine brain tubulin = experiment: Inhibition of tubulin polymerisation (turbidimetric tubulin assembly); format: biochemical
Procedure: as §1

SMILES: COC(=O)c1[nH]c2cc(OC)ccc2c1/C=C/C(=O)c1cc(OC)c(OC)c(OC)c1 [Compound 9e, (E)-Methyl 6-methoxy-3-(3-oxo-3-(3,4,5-trimethoxyphenyl)prop-1-en-1-yl)-1H-indole-2-carboxylate]
- Colchicine binding % ±SD (inhibition) [1]: 29 ± 5%
- fold more potent than CA-4 ([2]; HT29 cell line, ratio of IC50 values): 8–24 fold
- IC50 ([2]; Homo sapiens, HT-29, HT29, 72–96 h, read-out: IC50, inhibition of proliferation): 0.16 ± 0.02 µM
- fold increase in the percentage of apoptotic (hypodiploid) cells (U-937/Bcl-2 cells; U-937/Bcl-2, 1 μM, 72 h, versus control): ~20 fold
- % G1 (U-937/Bcl-2 cells; U-937/Bcl-2, 24 h, 0.3 µM): 24.7 ± 0.5 %
- % G2-M (U-937/Bcl-2 cells; U-937/Bcl-2, 24 h, 0.3 µM): 40.1 ± 1.3 %
- % S (U-937/Bcl-2 cells; U-937/Bcl-2, 24 h, 0.3 µM): 23.2 ± 0.2%
- % Sub-G1 (U-937/Bcl-2 cells; U-937/Bcl-2, 24 h, 0.3 µM): 9.8 ± 0.5 %
- % G1 (U-937/Bcl-2 cells; U-937/Bcl-2, 24 h, 1 µM): 17.4 ± 0.2 %
- % G2-M (U-937/Bcl-2 cells; U-937/Bcl-2, 24 h, 1 µM): 47.3 ± 1.2 %
- % S (U-937/Bcl-2 cells; U-937/Bcl-2, 24 h, 1 µM): 18.1 ± 1.7 %
- % Sub-G1 (U-937/Bcl-2 cells; U-937/Bcl-2, 24 h, 1 µM): 15% and 14.7 ± 0.7 %
- % G1 (U-937/Bcl-2 cells; U-937/Bcl-2, 48 h, 0.3 µM): 23.0 ± 0.7 %
- % G2-M (U-937/Bcl-2 cells; U-937/Bcl-2, 48 h, 0.3 µM): 34.3 ± 0.5 %
- % S (U-937/Bcl-2 cells; U-937/Bcl-2, 48 h, 0.3 µM): 22.4 ± 0.2%
- % Sub-G1 (U-937/Bcl-2 cells; U-937/Bcl-2, 48 h, 0.3 µM): 14.6 ± 0.4 %
- % G1 (U-937/Bcl-2 cells; U-937/Bcl-2, 48 h, 1 µM): 13.0 ± 0.9 %
- % G2-M (U-937/Bcl-2 cells; U-937/Bcl-2, 48 h, 1 µM): 33.2 ± 0.9 %
- % S (U-937/Bcl-2 cells; U-937/Bcl-2, 48 h, 1 µM): 15.4 ± 0.1 %
- % Sub-G1 (U-937/Bcl-2 cells; U-937/Bcl-2, 48 h, 1 µM): 28% and 28.0 ± 0.7 %
- % G1 (U-937/Bcl-2 cells; U-937/Bcl-2, 72 h, 0.3 µM): 22.4 ± 0.4 %
- % G2-M (U-937/Bcl-2 cells; U-937/Bcl-2, 72 h, 0.3 µM): 31.3 ± 1.3 %
- % S (U-937/Bcl-2 cells; U-937/Bcl-2, 72 h, 0.3 µM): 21.8 ± 0.8%
- % Sub-G1 (U-937/Bcl-2 cells; U-937/Bcl-2, 72 h, 0.3 µM): 17.6 ± 0.5 %
- % G1 (U-937/Bcl-2 cells; U-937/Bcl-2, 72 h, 1 µM): 12.8 ± 0.5 %
- % G2-M (U-937/Bcl-2 cells; U-937/Bcl-2, 72 h, 1 µM): 23.1 ± 2.2%
- % S (U-937/Bcl-2 cells; U-937/Bcl-2, 72 h, 1 µM): 16.0 ± 0.7%
- % Sub-G1 (U-937/Bcl-2 cells; U-937/Bcl-2, 72 h, 1 µM): 36% and 36.1 ± 3.3 %
- IC50 ([3]; Homo sapiens, U-937, 72 h): ~1 µM
- IC50 ([3]; 72 h): 1.1 ± 1 µM
- IC50 [4]: 5.7 ± 0.1 µM
- IC50 [5]: 18 ± 14 µM
- % G1 (U-937 cells; U-937, 24 h, 3 µM): 43.2 ± 0.2%
- % G2-M (U-937 cells; U-937, 24 h, 3 µM): 24.5 ± 0.1%
- % S (U-937 cells; U-937, 24 h, 3 µM): 24.4 ± 0.1%
- % Sub-G1 (U-937 cells; U-937, 24 h, 3 µM): 6.4 ± 0.4%
- % G1 (U-937 cells; U-937, 24 h, 10 µM): 33.0 ± 2.1 %
- % G2-M (U-937 cells; U-937, 24 h, 10 µM): 23.2 ± 0.3%
- % S (U-937 cells; U-937, 24 h, 10 µM): 27.1 ± 0.5%
- % Sub-G1 (U-937 cells; U-937, 24 h, 10 µM): 14.3 ± 1.6 %
- % G1 (U-937 cells; U-937, 48 h, 3 µM): 53.6 ± 0.3%
- % G2-M (U-937 cells; U-937, 48 h, 3 µM): 16.5 ± 0.1%
- % S (U-937 cells; U-937, 48 h, 3 µM): 24.6 ± 0.3%
- % Sub-G1 (U-937 cells; U-937, 48 h, 3 µM): 4.5 ± 0.2%
- % G1 (U-937 cells; U-937, 48 h, 10 µM): 39.7 ± 1.1 %
- % G2-M (U-937 cells; U-937, 48 h, 10 µM): 17.6 ± 0.0%
- % S (U-937 cells; U-937, 48 h, 10 µM): 23.3 ± 0.1%
- % Sub-G1 (U-937 cells; U-937, 48 h, 10 µM): 17.9 ± 1.2 %
- % G1 (U-937 cells; U-937, 72 h, 3 µM): 52.0 ± 0.9 %
- % G2-M (U-937 cells; U-937, 72 h, 3 µM): 14.3 ± 0.2%
- % S (U-937 cells; U-937, 72 h, 3 µM): 21.2 ± 0.7%
- % Sub-G1 (U-937 cells; U-937, 72 h, 3 µM): 10.8 ± 0.1%
- % G1 (U-937 cells; U-937, 72 h, 10 µM): 44.5 ± 1.4 %
- % G2-M (U-937 cells; U-937, 72 h, 10 µM): 14.1 ± 0.4%
- % S (U-937 cells; U-937, 72 h, 10 µM): 21.4 ± 0.6%
- % Sub-G1 (U-937 cells; U-937, 72 h, 10 µM): 18.4 ± 1.2 %
- fold less potent than CA-4 as inhibitor of tubulin polymerisation (bovine brain tubulin; ratio of tubulin assembly IC50 values): 10 fold
- IC50 (bovine brain tubulin; tubulin 10 µM, 20 min at 30 °C, read-out: Tubulin assembly IC50±SD): 6.2 ± 0.6 µM

From paper PMC6116705, “Design, synthesis, in vitro antiproliferative activity and apoptosis-inducing studies of 1-(3′,4′,5′-trimethoxyphenyl)-3-(2′-alkoxycarbonylindolyl)-2-propen-1-one derivatives obtained by a molecular hybridisation approach” (Journal of Enzyme Inhibition and Medicinal Chemistry, 2018)
